In US9273057B2 (Bristol-Myers Squibb Company, priority 2012, dated 2016):
Where a name gives a salt, the structure may show the parent alone.

Biological target: CK2A1 (CK2α/β) (Homo sapiens, UniProt P68400)
Experiment: CK2 kinase assay, CK2A1 (CK2α/β)
Assay type: biochemical
Conditions: Table A; read-out: CK2A1 (CK2α/β) (IC50)

Sequence of CK2A1 (CK2α/β) (P68400 whole entry, species assumed): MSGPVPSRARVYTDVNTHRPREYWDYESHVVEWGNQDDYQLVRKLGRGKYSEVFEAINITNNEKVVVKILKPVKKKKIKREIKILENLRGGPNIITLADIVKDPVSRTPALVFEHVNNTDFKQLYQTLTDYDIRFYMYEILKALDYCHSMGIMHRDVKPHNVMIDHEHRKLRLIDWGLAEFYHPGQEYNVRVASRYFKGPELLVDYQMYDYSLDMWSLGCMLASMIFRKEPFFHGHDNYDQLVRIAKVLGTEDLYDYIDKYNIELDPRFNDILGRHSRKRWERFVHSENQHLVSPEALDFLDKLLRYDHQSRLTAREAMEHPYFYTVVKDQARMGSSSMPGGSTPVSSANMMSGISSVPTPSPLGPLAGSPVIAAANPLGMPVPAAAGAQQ
Sequence of CK2A1 (CK2α/β) (P67870 whole entry partner, species assumed): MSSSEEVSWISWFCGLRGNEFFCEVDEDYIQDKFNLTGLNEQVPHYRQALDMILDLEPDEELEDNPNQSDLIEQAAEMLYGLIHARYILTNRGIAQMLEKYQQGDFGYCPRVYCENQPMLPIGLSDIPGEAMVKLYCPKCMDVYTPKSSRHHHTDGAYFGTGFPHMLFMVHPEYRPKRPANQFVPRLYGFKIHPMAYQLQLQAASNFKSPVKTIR

| IC50 [nM] | SMILES |
| --- | --- |
| 1.1 | CCNc1nc(Nc2cc(C#N)cc(N3C[C@H](NC(=O)OC)[C@H](OC)C3)c2Cl)nn2c(C#N)cnc12 [Example 334, methyl ((3S,4R)-1-(2-chloro-5-cyano-3-((7-cyano-4-(ethylamino)imidazo[2,1-f][1,2,4]triazin-2-yl)amino)phenyl)-4-methoxy-3-pyrrolidinyl)carbamate] |
| 5.8 | N#Cc1cc(Nc2nc(NC3CC3)c3ncc(C#N)n3n2)c(Cl)c(N2CCN(C3CN(C(=O)C4CCC(O)CC4)C3)CC2)c1 (stereo not drawn) [Example 512, 2-[(2-chloro-5-cyano-3-{4-[1-(4-hydroxycyclohexane-carbonyl)azetidin-3-yl]piperazin-1-yl}phenyl)amino]-4-(cyclopropylamino)imidazo[2,1-f][1,2,4]triazine-7-carbonitrile] |
| 2.51 | CCNc1nc(Nc2cc(C#N)cc(N3CCN4C[C@H](O)C[C@H]4C3)c2Cl)nn2c(C#N)cnc12 (racemic) [Example 436, (+/−)-2-((2-chloro-5-cyano-3-((7R,8aS)-7-hydroxyhexahydropyrrolo[1,2-a]pyrazin-2(1H)-yl)phenyl)amino)-4-(ethylamino)imidazo[2,1-f][1,2,4]triazine-7-carbonitrile] |
| 1.35 | CCNc1nc(Nc2cc(C#N)cc(N3CCN(C4(C)COC4)CC3)c2Cl)nn2c(C#N)cnc12 [Example 542, 2-((2-chloro-5-cyano-3-(4-(3-methyloxetan-3-yl)piperazin-1-yl)phenyl)amino)-4-(ethylamino)imidazo[2,1-f][1,2,4]triazine-7-carbonitrile] |
| 1.78 | COCCN(C)Cc1cc(C#N)cc(Nc2nc(NC3CC3)c3ncc(C#N)n3n2)c1Cl [Example 475, 2-[(2-chloro-5-cyano-3-{[(2-methoxyethyl)(methyl)amino]methyl}phenyl)amino]-4-(cyclopropylamino)imidazo[2,1-f][1,2,4]triazine-7-carbonitrile] |
| 3.08 | C[C@@H](O)CN1CC(N2CCN(c3cc(C#N)cc(Nc4nc(NC5CC5)c5ncc(C#N)n5n4)c3Cl)CC2)C1 [Example 588, 2-{[2-chloro-5-cyano-3-(4-{1-[(2R)-2-hydroxypropyl]azetidin-3-yl}piperazin-1-yl)phenyl]amino}-4-(cyclopropylamino)imidazo [2,1-f][1,2,4]triazine-7-carbonitrile] |
| 4.1 | COCCOC(=O)N1CCC(N2CCN(c3cc(C#N)cc(Nc4nc(NC5CC5)c5ncc(C#N)n5n4)c3Cl)CC2)C1 (stereo not drawn) [Example 579, 2-methoxyethyl 3-[4-(2-chloro-5-cyano-3-{[7-cyano-4-(cyclopropylamino)imidazo[2,1-f][1,2,4]triazin-2-yl]amino}phenyl)piperazin-1-yl]pyrrolidine-1-carboxylate] |
| 0.69 | N#Cc1cc(Nc2nc(NC3CC3)c3ncc(C#N)n3n2)c(Cl)c(N2CCC(N[C@H]3CC[C@H](O)C3)CC2)c1 (racemic) [Example 120, (+/−) 2-((2-chloro-5-cyano-3-(4-(((1S,3S)-3-hydroxycyclopentyl)amino)-1-piperidinyl)phenyl)amino)-4-(cyclopropylamino)imidazo [2,1-f][1,2,4]triazine-7-carbonitrile] |
| 1.3 | CC(CN1CC(O)C1)c1cc(C#N)cc(Nc2nc(NC3CC3)c3ncc(C#N)n3n2)c1Cl (stereo not drawn) [Example 573, 2-((2-chloro-5-cyano-3-(1-(3-hydroxyazetidin-1-yl)propan-2-yl)phenyl)amino)-4-(cyclopropylamino)imidazo[2,1-f][1,2,4]triazine-7-carbonitrile] |
| 0.83 | COC(=O)Nc1cc(Nc2nc(NC3CC3)c3ncc(C#N)n3n2)c(Cl)c(N2CC[C@@H](NC(=O)OC)[C@@H](F)C2)c1 (racemic) [Example 202, (+/−) methyl (4-chloro-3-((7-cyano-4-(cyclopropylamino)imidazo[2,1-f][1,2,4]triazin-2-yl)amino)-5-((3S,4R)-3-fluoro-4-((methoxycarbonyl)amino)-1-piperidinyl)phenyl)carbamate] |
| 0.68 | COC(=O)N[C@@H]1CN(c2cc(C#N)cc(Nc3nc(NC4CC4)c4ncc(C#N)n4n3)c2Cl)C[C@@H]1C (racemic) [Example 11, (+/−) methyl ((3S,4S)-1-(2-chloro-5-cyano-3-((7-cyano-4-(cyclopropylamino)imidazo [2,1-f][1,2,4]triazin-2-yl)amino)phenyl)-4-methyl-3-pyrrolidinyl)carbamate] |
| 1.59 | CC(CCNCCC(F)(F)F)c1cc(C#N)cc(Nc2nc(NC3CC3)c3ncc(C#N)n3n2)c1Cl (stereo not drawn) [Example 576, 2-((2-chloro-5-cyano-3-(4-((3,3,3-trifluoropropyl)amino)butan-2-yl)phenyl)amino)-4-(cyclopropylamino)imidazo[2,1-f][1,2,4]triazine-7-carbonitrile] |
| 2.73 | CCNc1nc(Nc2cc(C#N)cc(C3CCN(CCOC)CC3)c2Cl)nn2c(C#N)cnc12 [Example 352, 2-((2-chloro-5-cyano-3-(1-(2-methoxyethyl)-4-piperidinyl)phenyl)amino)-4-(ethylamino)imidazo[2,1-f] [1,2,4]triazine-7-carbonitrile] |
| 0.92 | CO[C@@H]1CN(c2cc(C#N)cc(Nc3nc(NC4CC4)c4ncc(C#N)n4n3)c2Cl)C[C@@H]1N [Example 30, 2-((3-((3S,4R)-3-amino-4-methoxy-1-pyrrolidinyl)-2-chloro-5-cyanophenyl)amino)-4-(cyclopropylamino)imidazo [2,1-f][1,2,4]triazine-7-carbonitrile] |
| 2.22 | CCNc1nc(Nc2cc(C#N)cc(C3CCN(C(C)C(N)=O)CC3)c2Cl)nn2c(C#N)cnc12 (racemic) [Example 640, (+/−)-2-(4-(2-chloro-5-cyano-3-((7-cyano-4-(ethylamino)imidazo[2,1-f][1,2,4]triazin-2-yl)amino)phenyl)piperidin-1-yl)propanamide] |
| 1.61 | CC(CO)N1CCN(c2cc(C#N)cc(Nc3nc(NC4CC4)c4ncc(C#N)n4n3)c2Cl)CC1 (racemic) [Example 54, (+/−) 2-((2-chloro-5-cyano-3-(4-(2-hydroxy-1-methylethyl)-1-piperazinyl)phenyl)amino)-4-(cyclopropylamino) imidazo[2,1-f][1,2,4] triazine-7-carbonitrile] |
| 0.44 | CC(CCO)c1cc(C#N)cc(Nc2nc(NC3CC3)c3ncc(C#N)n3n2)c1Cl (stereo not drawn) [Example 574, 2-((2-chloro-5-cyano-3-(4-hydroxybutan-2-yl)phenyl)amino)-4-(cyclopropylamino)imidazo[2,1-f][1,2,4]triazine-7-carbonitrile] |
| 0.57 | CC(=O)N1CCN(C2CN(c3cc(C#N)cc(Nc4nc(NC5CC5)c5ncc(C#N)n5n4)c3Cl)C2)CC1 [Example 541, 2-((3-(3-(4-acetylpiperazin-1-yl)azetidin-1-yl)-2-chloro-5-cyanophenyl)amino)-4-(cyclopropylamino)imidazo[2,1-f][1,2,4]triazine-7-carbonitrile] |
| 0.41 | CC(C)(O)c1cc(C#N)cc(Nc2nc(NC3CC3)c3ncc(C#N)n3n2)c1Cl [Example 676, 2-((2-chloro-5-cyano-3-(2-hydroxypropan-2-yl)phenyl)amino)-4-(cyclopropylamino)imidazo[2,1-f][1,2,4]triazine-7-carbonitrile] |
| 0.79 | CN(C)C(=O)C1CN(c2cc(C#N)cc(Nc3nc(NC4CC4)c4ncc(C#N)n4n3)c2Cl)CCN1 (stereo not drawn) [Example 563, 4-(2-chloro-5-cyano-3-((7-cyano-4-(cyclopropylamino)imidazo[2,1-f][1,2,4]triazin-2-yl)amino)phenyl)-N,N-dimethylpiperazine-2-carboxamide] |
| 0.63 | N#Cc1cc(Nc2nc(NC3CC3)c3ncc(C#N)n3n2)c(Cl)c(N2CCN(C(=O)CCCn3ccnc3)CC2)c1 [Example 96, 2-((2-chloro-5-cyano-3-(4-(4-(1H-imidazol-1-yl)butanoyl)-1-piperazinyl)phenyl)amino)-4-(cyclopropylamino) imidazo[2,1-f][1,2,4] triazine-7-carbonilrile] |
| 0.6 | CCNc1nc(Nc2ccc3c(c2)c(C#N)cn3C2CCN(C3CN(C[C@H](C)O)C3)CC2)nn2c(C#N)cnc12 [Example 834, (S)-2-((3-cyano-1-(1-(1-(2-hydroxypropyl)azetidin-3-yl)piperidin-4-yl)-1H-indol-5-yl)amino)-4-(ethylamino)imidazo[2,1-f][1,2,4]triazine-7-carbonitrile] |
| 1.79 | COC(=O)Nc1cc(Nc2nc(NC3CC3)c3ncc(C#N)n3n2)c(Cl)c(N2CC(N3CCN(C)CC3)C2)c1 [Example 203, methyl (4-chloro-3-((7-cyano-4-(cyclopropylamino)imidazo[2,1-f][1,2,4]triazin-2-yl)amino)-5-(3-(4-methyl-1-piperazinyl)-1-azetidinyl)phenyl)carbamate] |
| 5.05 | CCNc1nc(Nc2cc(C#N)cc(N3CC[C@@H](NC(=O)OC)[C@H](OC(=O)CCCN)C3)c2Cl)nn2c(C#N)cnc12 [Example 817, (3R,4R)-1-(2-chloro-5-cyano-3-((7-cyano-4-(ethylamino)imidazo[2,1-f][1,2,4]triazin-2-yl)amino)phenyl)-4-((methoxycarbonyl)amino)piperidin-3-yl 4-aminobutanonate hydrochloride] |
| 0.47 | C[C@H](N)C(=O)N1CCC(c2cc(C#N)cc(Nc3nc(NC4CC4)c4ncc(C#N)n4n3)c2Cl)CC1 [Example 240, 2-((3-(1-L-alanyl-4-piperidinyl)-2-chloro-5-cyanophenyl)amino)-4-(cyclopropylamino)imidazo[2,1-f][1,2,4]triazine-7-carbonitrile] |
| 0.96 | N#Cc1cc(Nc2nc(NC3CC3)c3ncc(C#N)n3n2)c(Cl)c(N2CCN(C(=O)C3CNCCO3)CC2)c1 (racemic) [Example 94, (+/−) 2-(2-chloro-5-cyano-3-(4-(morpholine-2-carbonyl)piperazin-1-yl)phenylamino)-4-(cyclopropylamino) imidazo[1,2-f][1,2,4] triazine-7-carbonitrile] |
| 0.95 | [2H]C1(N2CCC(c3cc(C#N)cc(Nc4nc(NC5CC5)c5ncc(C#N)n5n4)c3Cl)CC2)COC1 [Example 223, 2-((2-chloro-5-cyano-3-(1-(3-~2~H)-3-oxetanyl-4-piperidinyl)phenyl)amino)-4-(cyclopropylamino)imidazo[2,1-f][1,2,4]triazine-7-carbonitrile] |
